# Source: ChEMBL document CHEMBL4765401, “Synthesis, and biological evaluation of 3,6-diaryl-[1,2,4]triazolo[4,3-a]pyridine analogues as new potent tubulin polymerization inhibitors” (Eur J Med Chem, 2020)
# Activity calls are given as the source filed them. The rule behind the calls is not given here.
# Legend:
# MCF7 = test: Antiproliferative activity against human MCF7 cells measured after 48 hrs by MTT assay; type: functional, cell-based; conditions: MCF7, 48 h
# A549 = test: Antiproliferative activity against human A549 cells measured after 48 hrs by MTT assay; type: functional, cell-based; conditions: A549, 48 h
# HeLa [1] = test: Cell cycle arrest in human HeLa cells assessed as decrease in cyclin B1 expression measured after 24 hrs by Western blot analysis; type: functional, cell-based
# HeLa [2] = test: Induction of apoptosis in human HeLa cells assessed as increase in PARP cleavage measured after 24 hrs by Western blot analysis; type: functional, cell-based
# HeLa [3] = test: Cell cycle arrest in human HeLa cells assessed as increase in accumulation at G2M phase measured after 24 hrs by propidium iodide staining based flow cytometry; type: functional
# HeLa [4] = test: Induction of apoptosis in human HeLa cells assessed as viable cells at 48 nM measured after 24 hrs by Annexin V-FITC/propidium iodide staining based flow cytometry (reference value: 93.6%); type: functional; conditions: read-out: Activity
# HeLa [5] = test: Induction of apoptosis in human HeLa cells assessed as necrotic cells at 24 nM measured after 24 hrs by Annexin V-FITC/propidium iodide staining based flow cytometry (reference value: 0.048%); type: functional
# HeLa [6] = test: Induction of apoptosis in human HeLa cells assessed as early apoptotic cells at 48 nM measured after 24 hrs by Annexin V-FITC/propidium iodide staining based flow cytometry (reference value: 3.97%); type: functional
# HeLa [7] = test: Induction of apoptosis in human HeLa cells assessed as down regulation of Bcl-2 expression at 12 to 48 nM measured after 24 hrs by Western blot analysis; type: functional, cell-based; conditions: dose 12-48 nM
# HeLa [8] = test: Induction of apoptosis in human HeLa cells assessed as early apoptotic cells at 12 nM measured after 24 hrs by Annexin V-FITC/propidium iodide staining based flow cytometry (reference value: 3.97%); type: functional
# HeLa [9] = test: Cell cycle arrest in human HeLa cells assessed as accumulation at S phase at 24 nM measured after 24 hrs by propidium iodide staining based flow cytometry (reference value: 19.78%); type: functional
# HeLa [10] = test: Cell cycle arrest in human HeLa cells assessed as accumulation at S phase at 48 nM measured after 24 hrs by propidium iodide staining based flow cytometry (reference value: 19.78%); type: functional
# HeLa [11] = test: Induction of microtubule disruption in human HeLa cells at 12 nM measured after 6 hrs by DAPI staining based immunofluorescence microscopy; type: cell-based
# HeLa [12] = test: Cell cycle arrest in human HeLa cells assessed as accumulation at S phase at 12 nM measured after 24 hrs by propidium iodide staining based flow cytometry (reference value: 19.78%); type: functional
# HeLa [13] = test: Induction of apoptosis in human HeLa cells assessed as viable cells at 12 nM measured after 24 hrs by Annexin V-FITC/propidium iodide staining based flow cytometry (reference value: 93.6%); type: functional; conditions: read-out: Activity
# HeLa [14] = test: Cell cycle arrest in human HeLa cells assessed as accumulation at G2M phase at 12 nM measured after 24 hrs by propidium iodide staining based flow cytometry (reference value: 11.14%); type: functional
# HeLa [15] = test: Induction of apoptosis in human HeLa cells assessed as late apoptotic cells at 12 nM measured after 24 hrs by Annexin V-FITC/propidium iodide staining based flow cytometry (reference value: 2.34%); type: functional
# HeLa [16] = test: Induction of apoptosis in human HeLa cells assessed as necrotic cells at 12 nM measured after 24 hrs by Annexin V-FITC/propidium iodide staining based flow cytometry (reference value: 0.048%); type: functional
# HeLa [17] = test: Induction of apoptosis in human HeLa cells assessed as viable cells at 24 nM measured after 24 hrs by Annexin V-FITC/propidium iodide staining based flow cytometry (reference value: 93.6%); type: functional; conditions: read-out: Activity
# HeLa [18] = test: Induction of apoptosis in human HeLa cells measured after 24 hrs by Annexin V-FITC/propidium iodide staining based flow cytometry; type: functional, cell-based
# HeLa [19] = test: Induction of apoptosis in human HeLa cells assessed as late apoptotic cells at 24 nM measured after 24 hrs by Annexin V-FITC/propidium iodide staining based flow cytometry (reference value: 2.34%); type: functional
# T47D = test: Antiproliferative activity against human T47D cells measured after 48 hrs by MTT assay; type: functional, cell-based
# [20] = Inhibition of pig brain tubulin polymerization measured at 1 min interval for 20 mins by spectrophotometric method; parameters: species or system Sus scrofa
# HeLa [21] = test: Induction of apoptosis in human HeLa cells assessed as early apoptotic cells at 24 nM measured after 24 hrs by Annexin V-FITC/propidium iodide staining based flow cytometry (reference value: 3.97%); type: functional
# HeLa [22] = test: Cell cycle arrest in human HeLa cells assessed as accumulation at G0/G1 phase at 24 nM measured after 24 hrs by propidium iodide staining based flow cytometry (reference value: 69.08%); type: functional
# HeLa [23] = test: Cell cycle arrest in human HeLa cells assessed as accumulation at G2M phase at 48 nM measured after 24 hrs by propidium iodide staining based flow cytometry (reference value: 11.14%); type: functional
# HeLa [24] = test: Induction of apoptosis in human HeLa cells assessed as late apoptotic cells at 48 nM measured after 24 hrs by Annexin V-FITC/propidium iodide staining based flow cytometry (reference value: 2.34%); type: functional
# HEK293 = test: Cytotoxicity against HEK293 cells measured after 48 hrs by MTT assay; type: cell-based; conditions: Homo sapiens, HEK293, 48 h
# HeLa [25] = test: Cell cycle arrest in human HeLa cells assessed as accumulation at G0/G1 phase at 12 nM measured after 24 hrs by propidium iodide staining based flow cytometry (reference value: 69.08%); type: functional
# HeLa [26] = test: Antiproliferative activity against human HeLa cells measured after 48 hrs by MTT assay; type: functional, cell-based
# HeLa [27] = test: Cell cycle arrest in human HeLa cells assessed as accumulation at G2M phase at 24 nM measured after 24 hrs by propidium iodide staining based flow cytometry (reference value: 11.14%); type: functional
# HeLa [28] = test: Induction of apoptosis in human HeLa cells assessed as necrotic cells at 48 nM measured after 24 hrs by Annexin V-FITC/propidium iodide staining based flow cytometry (reference value: 0.048%); type: functional
# HeLa [29] = test: Cell cycle arrest in human HeLa cells assessed as accumulation at G0/G1 phase at 48 nM measured after 24 hrs by propidium iodide staining based flow cytometry (reference value: 69.08%); type: functional
# HeLa [30] = test: Cell cycle arrest in human HeLa cells assessed as decrease in cdc2 expression measured after 24 hrs by Western blot analysis; type: functional, cell-based
# Sus scrofa = species on record: Sus scrofa; test: Inhibition of pig brain tubulin polymerization at 10 uM measured at 1 min interval for 20 mins by spectrophotometric method relative to control
smiles,measurement,setting,value
COc1ccc(-c2ccc3nnc(-c4cc(OC)c(OC)c(OC)c4)n3c2)cc1N,IC50,MCF7,40.4 µM
same,IC50,A549,10.4 µM
same,Activity,HeLa [1],Dose-dependent effect
same,Activity,HeLa [2],Dose-dependent effect
same,Activity,HeLa [3],Dose-dependent effect
same,viability at 0.048 µM,HeLa [4],45.8%
same,Activity,HeLa [5],0.373%
same,Activity,HeLa [6],36.4%
same,Activity,HeLa [7],Active
same,Activity,HeLa [8],5.21%
same,Activity,HeLa [9],22.41%
same,Activity,HeLa [10],5.22%
same,Activity,HeLa [11],Active
same,Activity,HeLa [12],22.03%
same,viability at 0.012 µM,HeLa [13],91.4%
same,Activity,HeLa [14],13.9%
same,Activity,HeLa [15],3.23%
same,Activity,HeLa [16],0.139%
same,viability at 0.024 µM,HeLa [17],72.8%
same,Activity,HeLa [18],Dose-dependent effect
same,Activity,HeLa [19],7.97%
same,IC50,T47D,27.9 µM
same,IC50,[20],3.4 µM
same,Activity,HeLa [21],18.9%
same,Activity,HeLa [22],51.59%
same,Activity,HeLa [23],92.65%
same,Activity,HeLa [24],16.9%
same,IC50,HEK293,> 100 µM
same,Activity,HeLa [25],64.07%
same,IC50,HeLa [26],0.012 µM
same,Activity,HeLa [27],26%
same,Activity,HeLa [28],0.922%
same,Activity,HeLa [29],2.13%
same,Activity,HeLa [30],Dose-dependent effect
same,inhibition,Sus scrofa,81%
COc1ccc(-c2nnc3ccc(-c4cc(OC)c(OC)c(OC)c4)cn23)cc1,IC50,HeLa [26],> 25 µM
COc1cc(-c2nnc3ccc(-c4cccnc4OC)cn23)cc(OC)c1OC,IC50,HeLa [26],20.6 µM
COc1ccc(-c2nnc3ccc(-c4cc(OC)c(OC)c(OC)c4)cn23)cc1O,IC50,HeLa [26],22.1 µM
COc1ccccc1-c1ccc2nnc(-c3cc(OC)c(OC)c(OC)c3)n2c1,IC50,MCF7,13.7 µM
same,IC50,A549,9.28 µM
same,IC50,T47D,31.5 µM
same,IC50,HEK293,> 100 µM
same,IC50,HeLa [26],0.084 µM
same,inhibition,Sus scrofa,16%
COc1cc(-c2ccc3nnc(-c4ccc(Cl)cc4)n3c2)cc(OC)c1OC,IC50,HeLa [26],> 25 µM
COc1cccc(-c2ccc3nnc(-c4cc(OC)c(OC)c(OC)c4)n3c2)c1,IC50,HeLa [26],0.446 µM
COc1cc(-c2nnc3ccc(-c4ccc(Cl)c(Cl)c4)cn23)cc(OC)c1OC,IC50,HeLa [26],0.347 µM
COc1cc(-c2nnc3ccc(-c4ccc(C)cc4)cn23)cc(OC)c1OC,IC50,MCF7,> 100 µM
same,IC50,A549,6.26 µM
same,IC50,T47D,> 100 µM
same,IC50,[20],4.1 µM
same,IC50,HEK293,> 100 µM
same,IC50,HeLa [26],0.034 µM
same,inhibition,Sus scrofa,77%
COc1cc(-c2nnc3ccc(-c4ccc([N+](=O)[O-])cc4)cn23)cc(OC)c1OC,IC50,HEK293,> 100 µM
same,IC50,HeLa [26],0.023 µM
COc1ccc(-c2ccc3nnc(-c4cc(OC)c(OC)c(OC)c4)n3c2)cc1O,IC50,MCF7,> 100 µM
same,IC50,A549,17.8 µM
same,IC50,T47D,> 100 µM
same,IC50,HEK293,> 100 µM
same,IC50,HeLa [26],0.045 µM
same,inhibition,Sus scrofa,14%
COc1ccc(-c2nnc3ccc(-c4cc(OC)c(OC)c(OC)c4)cn23)cc1[N+](=O)[O-],IC50,HeLa [26],> 25 µM
COc1ccc(-c2nnc3ccc(-c4cc(OC)c(OC)c(OC)c4)cn23)cc1N,IC50,HeLa [26],3.97 µM
COc1ccc(-c2ccc3nnc(-c4cc(OC)c(OC)c(OC)c4)n3c2)cc1[N+](=O)[O-],IC50,MCF7,75.7 µM
same,IC50,A549,58.7 µM
same,IC50,T47D,> 100 µM
same,IC50,HEK293,> 100 µM
same,IC50,HeLa [26],0.062 µM
same,inhibition,Sus scrofa,36%
COc1ccc(-c2ccc3nnc(-c4cc(OC)c(OC)c(OC)c4)n3c2)cc1OC,IC50,MCF7,> 100 µM
same,IC50,A549,87.1 µM
same,IC50,T47D,> 100 µM
same,IC50,[20],11.3 µM
same,IC50,HeLa [26],0.119 µM
same,inhibition,Sus scrofa,68%
COc1cc(-c2ccc3nnc(-c4ccc(Cl)c(Cl)c4)n3c2)cc(OC)c1OC,IC50,HeLa [26],> 25 µM
COc1cc(-c2nnc3ccc(-c4ccc(F)cc4)cn23)cc(OC)c1OC,IC50,MCF7,> 100 µM
same,IC50,A549,78.6 µM
same,IC50,T47D,76 µM
same,IC50,HEK293,> 100 µM
same,IC50,HeLa [26],0.025 µM
same,inhibition,Sus scrofa,18%
COc1cc(-c2nnc3ccc(-c4ccccc4OC(F)(F)F)cn23)cc(OC)c1OC,IC50,HeLa [26],22.2 µM
COc1cc(F)ccc1-c1ccc2nnc(-c3cc(OC)c(OC)c(OC)c3)n2c1,IC50,HeLa [26],0.153 µM
COc1ccc(-c2ccc3nnc(-c4cc(OC)c(OC)c(OC)c4)n3c2)c(O)c1,IC50,HeLa [26],> 25 µM
COc1cc(-c2nnc3ccc(-c4ccc5ccccc5c4)cn23)cc(OC)c1OC,IC50,HeLa [26],> 25 µM
COc1cc(-c2nnc3ccc(-c4ccc(C(F)(F)F)cc4)cn23)cc(OC)c1OC,IC50,HeLa [26],> 25 µM
COc1ccc(/C=C\c2cc(OC)c(OC)c(OC)c2)cc1O [COMBRETASTATIN A4],IC50,MCF7,0.17 µM
same,Activity,HeLa [11],Active
same,IC50,HeLa [26],0.0047 µM
same,inhibition,Sus scrofa,79%
COc1ccc(F)cc1-c1ccc2nnc(-c3cc(OC)c(OC)c(OC)c3)n2c1,IC50,HeLa [26],0.651 µM
COc1cc(-c2nnc3ccc(-c4ccc(O)cc4)cn23)cc(OC)c1OC,IC50,HeLa [26],> 25 µM
COc1ccc(-c2ccc3nnc(-c4cc(OC)c(OC)c(OC)c4)n3c2)c(OC)c1,IC50,HeLa [26],7.9 µM
COc1cc(-c2ccc3nnc(-c4ccc(F)cc4)n3c2)cc(OC)c1OC,IC50,HeLa [26],> 25 µM
COc1cc(C2=NC3=NC(C)=C(C(C)=O)C(c4ccc([N+](=O)[O-])cc4)N3N2)cc(OC)c1OC (configuration not stated),IC50,HEK293,29.9 µM
same,IC50,HeLa [26],0.75 µM
COc1ccc(-c2ccc3nnc(-c4cc(OC)c(OC)c(OC)c4)n3c2)cc1,IC50,HeLa [26],0.194 µM
COc1cc(-c2ccc3nnc(-c4ccc(C)cc4)n3c2)cc(OC)c1OC,IC50,HeLa [26],> 25 µM
COc1cc(-c2nnc3ccc(-c4ccc(Cl)cc4)cn23)cc(OC)c1OC,IC50,HEK293,> 100 µM
same,IC50,HeLa [26],0.065 µM
